Where two headings read alike, the source gives them in different places.
Legend:
[1] = molecular target: N-type calcium channel (α1B (Cav2.2), β3 and α2δ subunits) (Homo sapiens, UniProt Q00975); experiment: Functional Assay: Antagonism of N-Type Calcium Channel (FDSS calcium mobilization, KCl depolarization); format: cell-based; conditions: for IC50: HEK cell line, 50 mM KCl depolarization, six-point concentration-response, read-out: FDSS IC50
How it was run: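 HEK cells stably co-expressing α1B (Cav2.2), β3 and α2δ were loaded with calcium dye, then given compound with fluorescence recorded for 5 min before 50 mM KCl depolarisation and 3 min more reading. IC50 came from six-point curves of maximal fluorescence, normalised to KCl maximum and buffer minimum.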

N-type calcium channel = N-type calcium channel (Homo sapiens, UniProt Q00975); experiment: Automated Electrophysiology Assay (QPatch-HT whole-cell patch clamp; low- and high-frequency stimulation); format: cell-based
[2] = high-frequency stimulation (15th pulse), read-out: QPatch at High Frequency % Inhibition
[3] = low frequency, read-out: QPatch at Low Frequency % Inhibition

Sequence of N-type calcium channel (α1B (Cav2.2), β3 and α2δ subunits) (Q00975 whole entry): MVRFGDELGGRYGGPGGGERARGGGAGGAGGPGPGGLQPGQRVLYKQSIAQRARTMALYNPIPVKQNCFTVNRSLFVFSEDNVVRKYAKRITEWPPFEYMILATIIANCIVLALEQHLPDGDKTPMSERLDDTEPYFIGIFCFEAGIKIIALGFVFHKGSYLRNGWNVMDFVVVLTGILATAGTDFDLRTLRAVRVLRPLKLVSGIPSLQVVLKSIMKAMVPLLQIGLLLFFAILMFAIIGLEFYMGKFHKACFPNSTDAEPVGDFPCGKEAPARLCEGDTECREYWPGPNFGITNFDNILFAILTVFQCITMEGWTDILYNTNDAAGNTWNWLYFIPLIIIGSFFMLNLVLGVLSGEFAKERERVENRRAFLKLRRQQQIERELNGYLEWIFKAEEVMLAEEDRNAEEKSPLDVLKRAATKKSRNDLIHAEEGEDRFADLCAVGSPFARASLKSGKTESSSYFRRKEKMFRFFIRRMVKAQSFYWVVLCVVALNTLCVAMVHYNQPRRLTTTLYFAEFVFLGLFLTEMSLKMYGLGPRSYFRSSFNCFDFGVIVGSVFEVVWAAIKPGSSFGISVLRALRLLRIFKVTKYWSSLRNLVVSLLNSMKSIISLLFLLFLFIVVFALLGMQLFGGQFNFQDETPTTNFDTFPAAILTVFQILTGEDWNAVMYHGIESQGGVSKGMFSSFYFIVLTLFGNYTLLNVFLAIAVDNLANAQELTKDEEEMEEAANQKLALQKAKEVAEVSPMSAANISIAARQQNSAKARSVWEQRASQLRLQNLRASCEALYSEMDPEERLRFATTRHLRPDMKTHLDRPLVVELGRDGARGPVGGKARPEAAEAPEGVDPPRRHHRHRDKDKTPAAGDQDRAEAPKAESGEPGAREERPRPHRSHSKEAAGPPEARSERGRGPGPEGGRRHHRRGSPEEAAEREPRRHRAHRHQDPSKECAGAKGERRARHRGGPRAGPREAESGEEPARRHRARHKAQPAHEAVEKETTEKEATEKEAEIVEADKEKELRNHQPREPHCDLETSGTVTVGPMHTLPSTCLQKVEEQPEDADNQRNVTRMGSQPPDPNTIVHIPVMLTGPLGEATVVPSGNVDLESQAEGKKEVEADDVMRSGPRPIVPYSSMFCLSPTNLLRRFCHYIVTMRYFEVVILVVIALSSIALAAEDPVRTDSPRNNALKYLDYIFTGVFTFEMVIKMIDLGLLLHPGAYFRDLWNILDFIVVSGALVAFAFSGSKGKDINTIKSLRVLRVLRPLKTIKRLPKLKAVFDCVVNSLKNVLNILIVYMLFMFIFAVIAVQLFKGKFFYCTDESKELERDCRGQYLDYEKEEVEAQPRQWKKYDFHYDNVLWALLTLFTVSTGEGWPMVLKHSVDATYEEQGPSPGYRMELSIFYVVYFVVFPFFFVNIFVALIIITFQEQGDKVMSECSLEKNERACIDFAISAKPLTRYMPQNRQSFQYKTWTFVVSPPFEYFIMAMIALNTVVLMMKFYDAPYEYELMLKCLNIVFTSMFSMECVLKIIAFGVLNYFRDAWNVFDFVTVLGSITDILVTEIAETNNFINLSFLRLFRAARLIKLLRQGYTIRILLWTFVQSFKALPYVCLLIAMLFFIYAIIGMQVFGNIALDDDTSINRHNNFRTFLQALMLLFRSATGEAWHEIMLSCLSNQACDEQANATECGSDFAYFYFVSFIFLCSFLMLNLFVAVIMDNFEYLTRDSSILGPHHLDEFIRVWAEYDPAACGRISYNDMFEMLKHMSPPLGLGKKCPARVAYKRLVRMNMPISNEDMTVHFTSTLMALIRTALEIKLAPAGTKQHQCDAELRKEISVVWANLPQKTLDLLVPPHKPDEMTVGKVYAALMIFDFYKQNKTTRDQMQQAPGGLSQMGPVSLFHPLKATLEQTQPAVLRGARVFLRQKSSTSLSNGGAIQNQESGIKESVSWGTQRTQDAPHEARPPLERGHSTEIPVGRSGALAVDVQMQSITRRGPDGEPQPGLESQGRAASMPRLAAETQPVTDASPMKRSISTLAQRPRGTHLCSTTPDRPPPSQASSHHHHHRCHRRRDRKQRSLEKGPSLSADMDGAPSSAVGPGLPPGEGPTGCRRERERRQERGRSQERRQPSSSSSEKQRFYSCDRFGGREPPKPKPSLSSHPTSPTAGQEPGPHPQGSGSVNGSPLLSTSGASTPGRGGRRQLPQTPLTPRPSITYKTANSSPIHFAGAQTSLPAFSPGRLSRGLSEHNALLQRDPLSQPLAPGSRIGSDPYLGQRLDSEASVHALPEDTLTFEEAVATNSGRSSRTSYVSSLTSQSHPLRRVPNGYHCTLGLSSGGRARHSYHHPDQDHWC
Sequence of N-type calcium channel (α1B (Cav2.2), β3 and α2δ subunits) (P54284 whole entry partner): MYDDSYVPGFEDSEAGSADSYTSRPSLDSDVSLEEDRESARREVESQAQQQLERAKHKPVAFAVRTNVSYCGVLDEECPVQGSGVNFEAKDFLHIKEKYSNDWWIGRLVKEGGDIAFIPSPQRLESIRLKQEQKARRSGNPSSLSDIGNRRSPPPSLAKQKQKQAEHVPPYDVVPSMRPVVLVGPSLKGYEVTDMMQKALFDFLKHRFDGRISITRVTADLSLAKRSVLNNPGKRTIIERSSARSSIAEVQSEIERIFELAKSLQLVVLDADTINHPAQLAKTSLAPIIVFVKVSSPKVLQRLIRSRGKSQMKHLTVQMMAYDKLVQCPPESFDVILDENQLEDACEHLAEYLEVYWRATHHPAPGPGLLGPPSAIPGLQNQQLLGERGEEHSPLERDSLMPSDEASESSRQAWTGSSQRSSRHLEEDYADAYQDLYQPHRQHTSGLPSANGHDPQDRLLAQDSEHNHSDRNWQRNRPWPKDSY
Sequence of N-type calcium channel (α1B (Cav2.2), β3 and α2δ subunits) (P54289 25-946 partner limits assumed): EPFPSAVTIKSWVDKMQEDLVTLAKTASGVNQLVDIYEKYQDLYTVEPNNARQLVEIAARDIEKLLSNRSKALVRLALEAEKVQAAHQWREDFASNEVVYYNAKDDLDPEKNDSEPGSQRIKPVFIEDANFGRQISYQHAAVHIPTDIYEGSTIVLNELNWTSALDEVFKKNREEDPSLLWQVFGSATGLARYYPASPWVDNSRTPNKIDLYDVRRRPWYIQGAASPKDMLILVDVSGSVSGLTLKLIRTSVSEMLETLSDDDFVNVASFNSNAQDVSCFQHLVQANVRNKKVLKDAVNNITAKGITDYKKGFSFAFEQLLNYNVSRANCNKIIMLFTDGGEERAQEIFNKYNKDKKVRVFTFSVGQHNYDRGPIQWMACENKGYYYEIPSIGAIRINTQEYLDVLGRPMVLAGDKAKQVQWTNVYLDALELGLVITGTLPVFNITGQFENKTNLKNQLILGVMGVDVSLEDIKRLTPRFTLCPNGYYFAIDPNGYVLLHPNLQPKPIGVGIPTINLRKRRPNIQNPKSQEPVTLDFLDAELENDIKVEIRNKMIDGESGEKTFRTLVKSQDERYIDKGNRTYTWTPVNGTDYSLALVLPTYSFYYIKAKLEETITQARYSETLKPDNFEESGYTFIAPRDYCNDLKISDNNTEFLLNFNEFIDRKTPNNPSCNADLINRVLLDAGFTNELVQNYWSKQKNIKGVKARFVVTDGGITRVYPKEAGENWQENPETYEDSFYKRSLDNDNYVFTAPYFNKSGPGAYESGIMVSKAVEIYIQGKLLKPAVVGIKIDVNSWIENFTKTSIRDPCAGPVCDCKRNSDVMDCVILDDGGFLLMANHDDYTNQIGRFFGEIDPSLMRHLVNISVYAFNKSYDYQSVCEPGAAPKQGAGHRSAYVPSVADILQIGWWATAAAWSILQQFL
Sequence of N-type calcium channel (α1B (Cav2.2), β3 and α2δ subunits) (P54289 947-1103 partner limits assumed): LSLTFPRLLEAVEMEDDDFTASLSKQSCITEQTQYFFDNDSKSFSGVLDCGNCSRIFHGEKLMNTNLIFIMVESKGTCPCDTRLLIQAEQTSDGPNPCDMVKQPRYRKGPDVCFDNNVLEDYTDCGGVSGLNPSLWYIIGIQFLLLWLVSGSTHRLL
Sequence of N-type calcium channel (Q00975 whole entry): as the sequence (Q00975 whole entry) above
Sequence of N-type calcium channel (P54284 whole entry partner): as the sequence (P54284 whole entry partner) above
Sequence of N-type calcium channel (P54289 25-946 partner limits assumed): as the sequence (P54289 25-946 partner limits assumed) above
Sequence of N-type calcium channel (P54289 947-1103 partner limits assumed): as the sequence (P54289 947-1103 partner limits assumed) above

Row | Structure (SMILES) | IC50 [1] | inhibition at 0.1 µM (N-type calcium channel; [2]) | inhibition at 0.1 µM (N-type calcium channel; [3]) | inhibition at 0.33 µM [1] | inhibition at 0.25 µM (N-type calcium channel; [2]) | inhibition at 1 µM (N-type calcium channel; [2]) | inhibition at 0.25 µM (N-type calcium channel; [3]) | inhibition at 1 µM (N-type calcium channel; [3])
1 | O=C1Cc2nn(-c3ccccc3OC(F)(F)F)c(-c3ccc(Cl)cc3)c2C1 [Compound 27, 3-(4-chlorophenyl)-2-[2-(trifluoromethoxy)phenyl]-2,6-dihydrocyclopenta[c]pyrazol-5(4H)-one] | 11 nM | -14% | -16% | – | – | – | – | –
2 | COc1ccccc1-n1nc2c(c1-c1ccc(Cl)cc1)CC(OC(=O)N(C)C)C2 (stereo not drawn) [Compound 28, 3-(4-chlorophenyl)-2-(2-methoxyphenyl)-2,4,5,6-tetrahydrocyclopenta[c]pyrazol-5-yl dimethylcarbamate] | 15 nM | 45% | 25% | – | – | – | – | –
3 | COc1ccccc1-n1nc2c(c1-c1ccc(Cl)cc1)CC(OC(=O)N1CCOCC1)C2 (stereo not drawn) [Compound 29, 3-(4-chlorophenyl)-2-(2-methoxyphenyl)-2,4,5,6-tetrahydrocyclopenta[c]pyrazol-5-yl morpholine-4-carboxylate] | 43 nM | 21% | -8% | – | – | – | – | –
4 | CCOc1ccccc1-n1nc2c(c1-c1ccc(Cl)cc1)CC(OC(=O)N(C)C)C2 (stereo not drawn) [Compound 30, 3-(4-chlorophenyl)-2-(2-ethoxyphenyl)-2,4,5,6-tetrahydrocyclopenta[c]pyrazol-5-yl dimethylcarbamate] | 28 nM | 25% | 9% | – | – | – | – | –
5 | CCOc1ccccc1-n1nc2c(c1-c1ccc(Cl)cc1)CC(OC(=O)N1CCOCC1)C2 (stereo not drawn) [Compound 31, 3-(4-chlorophenyl)-2-(2-ethoxyphenyl)-2,4,5,6-tetrahydrocyclopenta[c]pyrazol-5-yl morpholine-4-carboxylate] | 18 nM | 22% | 14% | – | – | – | – | –
6 | COc1ccccc1-n1nc2c(c1-c1ccc(Cl)cc1)CC(NS(C)(=O)=O)C2 (stereo not drawn) [Compound 32, N-[3-(4-chlorophenyl)-2-(2-methoxyphenyl)-2,4,5,6-tetrahydrocyclopenta[c]pyrazol-5-yl]methanesulfonamide] | 26 nM | 20% | 18% | – | – | – | – | –
7 | COc1ccccc1-n1nc2c(c1-c1ccc(Cl)cc1)CC(NS(=O)(=O)C(C)C)C2 (stereo not drawn) [Compound 33, N-[3-(4-chlorophenyl)-2-(2-methoxyphenyl)-2,4,5,6-tetrahydrocyclopenta[c]pyrazol-5-yl]propane-2-sulfonamide] | 18 nM | 42% | 35% | – | – | – | – | –
8 | COc1ccccc1-n1nc2c(c1-c1ccc(Cl)cc1)CC(NS(=O)(=O)N(C)C)C2 (stereo not drawn) [Compound 34, N′-[3-(4-chlorophenyl)-2-(2-methoxyphenyl)-2,4,5,6-tetrahydrocyclopenta[c]pyrazol-5-yl]-N,N-dimethylsulfamide] | 14 nM | 37% | 34% | – | – | – | – | –
9 | CCOc1ccccc1-n1nc2c(c1-c1ccc(Cl)cc1)CC(=O)C2 [Compound 36, 3-(4-chlorophenyl)-2-(2-ethoxyphenyl)-2,6-dihydrocyclopenta[c]pyrazol-5(4H)-one] | 29 nM | 26% | 18% | – | – | – | – | –
10 | COc1ccccc1-n1nc2c(c1-c1ccc(Cl)cc1)CC(N(C)S(C)(=O)=O)C2 (stereo not drawn) [Compound 37, N-[3-(4-chlorophenyl)-2-(2-methoxyphenyl)-2,4,5,6-tetrahydrocyclopenta[c]pyrazol-5-yl]-N-methylmethanesulfonamide] | 6.4 nM | 46% | 44% | – | – | – | – | –
11 | CCOc1ccccc1-n1nc2c(c1-c1ccc(Cl)cc1)CC(N1C(=O)CCC1=O)C2 (stereo not drawn) [Compound 38, 1-[3-(4-chlorophenyl)-2-(2-ethoxyphenyl)-2,4,5,6-tetrahydrocyclopenta[c]pyrazol-5-yl]pyrrolidine-2,5-dione] | 7.5 nM | 53% | 47% | – | – | – | – | –
12 | CCOc1ccccc1-n1nc2c(c1-c1ccc(Cl)cc1)CC(n1ccnc1)C2 (stereo not drawn) [Compound 39, 3-(4-chlorophenyl)-2-(2-ethoxyphenyl)-5-(1H-imidazol-1-yl)-2,4,5,6-tetrahydrocyclopenta[c]pyrazole] | 38 nM | 29% | 13% | 81% | 47% | 72% | 34% | 51%
13 | CCOc1ccccc1-n1nc2c(c1-c1ccc(Cl)cc1)CC(n1cc([Si](C)(C)C)nn1)C2 (stereo not drawn) [Compound 41, 3-(4-chlorophenyl)-2-(2-ethoxyphenyl)-5-[4-(trimethylsilyl)-1H-1,2,3-triazol-1-yl]-2,4,5,6-tetrahydrocyclopenta[c]pyrazole] | 24 nM | 60% | 58% | 92% | – | – | – | –
14 | CCOc1ccccc1-n1nc2c(c1-c1ccc(Cl)cc1)CC(n1ccnn1)C2 (stereo not drawn) [Compound 42, 3-(4-chlorophenyl)-2-(2-ethoxyphenyl)-5-(1H-1,2,3-triazol-1-yl)-2,4,5,6-tetrahydrocyclopenta[c]pyrazole] | 19 nM | – | – | 91% | – | 87% | – | 86%
15 | CCOc1ccccc1-n1nc2c(c1-c1ccc(Cl)cc1)C[C@@H](n1ccnc1)C2 [Compound 43, (5R)-3-(4-chlorophenyl)-2-(2-ethoxyphenyl)-5-(1H-imidazol-1-yl)-2,4,5,6-tetrahydrocyclopenta[c]pyrazole] | 42 nM | 5% | -22% | 87% | – | – | – | –
16 | CCOc1ccccc1-n1nc2c(c1-c1ccc(Cl)cc1)C[C@@H](NS(=O)(=O)C(C)C)C2 [Compound 44, N-[(5R)-3-(4-chlorophenyl)-2-(2-ethoxyphenyl)-2,4,5,6-tetrahydrocyclopenta[c]pyrazol-5-yl]propane-2-sulfonamide] | 32 nM | 48% | 42% | 89% | – | – | – | –
17 | CCOc1ccccc1-n1nc2c(c1-c1ccc(Cl)cc1)C[C@@H](NC(=O)C(F)(F)F)C2 [Compound 45, N-[(5R)-3-(4-chlorophenyl)-2-(2-ethoxyphenyl)-2,4,5,6-tetrahydrocyclopenta[c]pyrazol-5-yl]-2,2,2-trifluoroacetamide] | 4 nM | 68% | 60% | 94% | – | – | – | –
18 | CCOc1ccccc1-n1nc2c(c1-c1ccc(Cl)cc1)C[C@@H](N(C)S(=O)(=O)N(C)C)C2 [Compound 46, N-[(5R)-3-(4-chlorophenyl)-2-(2-ethoxyphenyl)-2,4,5,6-tetrahydrocyclopenta[c]pyrazol-5-yl]-N,N′,N′-trimethylsulfamide] | 2.6 nM | 50% | 21% | 99% | – | – | – | –
19 | CCOc1ccccc1-n1nc2c(c1-c1ccc(Cl)cc1)CC(NS(=O)(=O)N(C)C)C2 (stereo not drawn) [Compound 47, N′-[3-(4-chlorophenyl)-2-(2-ethoxyphenyl)-2,4,5,6-tetrahydrocyclopenta[c]pyrazol-5-yl]-N,N-dimethylsulfamide] | 4 nM | 19% | 15% | 92% | – | – | – | –
